Test results from US20050004193A1, “Pharmaceutical combination for the prevention or treatment of cardiovascular, cardiopulmonary, pulmonary, or renal diseases” (Boehringer Ingelheim International GmbH, priority 2003, published 2005).
“And” between values parts separate entries of the source, which are not always exact repeats. Identical values can stand only once.

How the values were obtained:
[1] = Dissolution of active substances from Tablet 3; assay type: physicochemical; conditions: Tablet 3, three batches
Excerpt: This combination of active substances and excipients is then compressed with a suitable tablet press (e.g., Korsch EKO or Fette P1200) to form tablets. […]

[2] = target: T1, human PPARgamma-ligand binding domain (LBD) (Homo sapiens, UniProt P37231); assay: AlphaScreen: recruiting of CBP LXXLL peptide by GST-PPARgamma-LBD; assay type: biochemical; conditions: for direct activation of the PPARgamma-LBD / recruiting of the LXXLL peptide: concentrations of up to 50 μM
T1 construct: codes for the amino acids 205-505 of the human PPARgamma2 transcription factor; made in house; host or cells: E. coli BL21(DE3), vector pGEX4T-1
T1 sequence (P37231 205-505): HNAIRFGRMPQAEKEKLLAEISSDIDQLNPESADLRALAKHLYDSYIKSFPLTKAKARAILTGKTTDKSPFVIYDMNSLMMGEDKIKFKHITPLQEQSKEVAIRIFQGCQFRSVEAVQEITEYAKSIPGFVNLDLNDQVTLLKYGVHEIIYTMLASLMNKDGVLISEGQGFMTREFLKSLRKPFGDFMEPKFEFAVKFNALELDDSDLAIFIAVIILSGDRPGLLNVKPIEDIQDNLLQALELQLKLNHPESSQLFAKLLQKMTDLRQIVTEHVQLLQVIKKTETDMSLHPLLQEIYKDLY
Procedure: Protein containing the human PPARgamma-ligand binding domain (LBD) is prepared as a GST fusion protein in E. coli and purified by affinity chromatography. […] The fusion protein is expressed in the E. coli strain BL21(DE3) recommended for pGEX vectors after induction with 0.2 mM IPTG for 4 hours at 25° C. The bacteria are pelleted after the induction and frozen in batches in PBS, pH 7.4. After opening up in a French Press, the dissolved GST-PPARgamma-LBD-fusion protein is purified using a GSTrap column (Pharmacia). Elution is carried out by the addition of 20 mM reduced glutathione. The GST-PPARgamma-LBD-protein fractions are desalinated using a HiTrap desalting column (Pharmacia) and the protein concentration is determined using a standard assay.
The assay buffer consists of 25 mM Hepes pH7.4, 100 mM NaCl, 1 mM DTT, 0.1% Tween-20, and 0.1% BSA. […] The final DMSO concentration in the assay is 1% (v/v). A 1% DMSO solution is used as the background control (NSB). The measurement is done using a Packard fusion measuring device.

[3] = target: T2, human PPARgamma-ligand binding domain (LBD) (Homo sapiens, UniProt P37231); assay: SPA assay: displacement of 3H-labeled rosiglitazone from PPARgamma-LBD; conditions: for displacement of the radioactive rosiglitazone from the binding pocket: very large excesses of test substance; for MW (SPA signal, bound 3H-rosiglitazone): NSB 217, Bmax 911
T2 sequence (P37231 205-505): T1 sequence (P37231 205-505)
T2 sequence (P19793 220-461 partner limits assumed): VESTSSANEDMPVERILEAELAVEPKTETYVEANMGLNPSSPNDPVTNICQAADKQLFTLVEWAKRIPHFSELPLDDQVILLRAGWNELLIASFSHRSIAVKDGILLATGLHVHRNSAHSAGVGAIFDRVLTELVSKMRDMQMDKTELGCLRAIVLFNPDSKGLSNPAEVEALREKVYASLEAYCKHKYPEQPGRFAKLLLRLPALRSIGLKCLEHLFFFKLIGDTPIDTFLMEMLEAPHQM
Procedure: Protein containing the human PPARgamma-ligand binding domain (LBD) is prepared as a GST fusion protein in E. coli and purified by affinity chromatography. To do this, a DNA section which codes for the amino acids 205-505 of the human PPARgamma2 transcription factor (cf. Genbank entry U79012) is subcloned via the additionally inserted restriction cutting sites BamH I and Xho I into the expression vector pGEX4T-I (Amersham) and the sequence of the section is monitored. […] The bacteria are pelleted after the induction and frozen in batches in PBS, pH 7.4. After opening up in a French Press, the dissolved GST-PPARgamma-LBD-fusion protein is purified using a GSTrap column (Pharmacia). Elution is carried out by the addition of 20 mM reduced glutathione. The GST-PPARgamma-LBD-protein fractions are desalinated using a HiTrap desalting column (Pharmacia) and the protein concentration is determined using a standard assay. Protein containing the human RXRalpha ligand binding domain (LBD) is prepared as a His tag fusion protein in E. coli and purified by affinity chromatography. To do this, a DNA section which codes for the amino acids 220-461 of the human RXRalpha transcription factor (cf. Genbank entry NM_002957, nt 729-1457) is subcloned via the additionally introduced restriction cutting sites BamH I and Not I into the expression vector pET28c (Novagen) and the sequence of the section is monitored. The fusion protein is expressed in the E. […] The bacteria are pelleted after the expression and frozen in batches in PBS, pH 7.4. After opening up in a French Press, the dissolved His-RXRalpha-LBD-fusion protein is purified using a HiTrap chelating column (Pharmacia). Elution is carried out using a 500 mM imidazole step. The His-RXRalpha-LBD protein fractions are desalinated using a HiTrap desalting column (Pharmacia) and the protein concentration is determined using a standard assay. A description of the SPA assay format can be found in R. Mukherjee et al., J Steroid Biochem Mol Biol (2002) 81:217-225.

[4] = target: T3, fusion protein of ligand binding domain of human PPARgamma2 transcription factor and yeast GAL4 DNA binding domain (Homo sapiens, UniProt P37231); assay: Luciferase activity in stably transformed PPARgamma reporter cell line (CHO-K1 clone 11); assay type: cell-based
T3 construct: codes for amino acids 205-505 of the human PPARgamma2 transcription factor; expressed in transfected cells
T3 sequence (P37231 205-505): T1 sequence (P37231 205-505)
Procedure: After 24 hours, the medium is changed for one without any added G418. The test substances are brought to 100 times the desired concentration with a suitable solvent, e.g., DMSO, and diluted 1:100 with the medium placed in the cell culture plate. The solvent used, e.g., DMSO, is used as the background control in the same concentration. […] Luminescence is measured after a five minute wait using a Packard TopCount NXT. The luciferase activity is obtained by integrating the relative luciferase units (RLU) of the first ten seconds after the start of measurement.

In the case of NS(=O)(=O)c1cc2c(cc1Cl)NCNS2(=O)=O [hydrochlorothiazide], the “dissolution of hydrochlorothiazide from tablets” value ([1]; 900 mL of 0.1 M HCl, 100 rpm, 30 minutes) is reported as 69±6.3% and 72±2.1% and 78±1.8%.
With CCCc1nc2c(C)cc(-c3nc4ccccc4n3C)cc2n1Cc1ccc(-c2ccccc2C(=O)[O-])cc1.[Na+] [telmisartan sodium salt] the “dissolution of telmisartan sodium salt from tablets” value ([1]; 900 mL of 0.1 M phosphate buffer, pH 7.5, 30 minutes stirring, 75 rpm) was 92±1.5% and 96±1.8% and 100±1.0%.
In the case of CCCc1nc2c(C)cc(-c3nc4ccccc4n3C)cc2n1Cc1ccc(-c2ccccc2C(=O)O)cc1 [Telmisartan, 4′-[2-n-propyl-4-methyl-6-(1-methylbenzimidazol-2-yl)benzimidazol-1-ylmethyl]biphenyl-2-carboxylic acid], the “MW (AlphaScreen signal)” value ([2]; conc. 3.00E-06 M) is reported as 720, the “direct activation of the PPARgamma-LBD / recruiting of the LXXLL peptide” value [2] is reported as “does not result in any direct activation of the PPARgamma-LBD” and the “displacement of the radioactive rosiglitazone from the binding pocket” value (shortened to “displacement”) [3] is reported as “no concentration-dependent displacement of the radioactive rosiglitazone”. For the same molecule, the “activation of the PPARgamma pathway in the PPARgamma reporter cell line” value [4] was “particularly potent activation of the PPARgamma pathway” and the “MW (luciferase activity)” value ([4]; conc. 3.00E-07 M, 24 hours) was 760 RLU.
With CCCCC1=NC2(CCCC2)C(=O)N1Cc1ccc(-c2ccccc2-c2nnn[nH]2)cc1 [Irbesartan] the “direct activation of the PPARgamma-LBD / recruiting of the LXXLL peptide” value [2] was “does not result in any direct activation of the PPARgamma-LBD”, the “MW (SPA signal, bound 3H-rosiglitazone)” value ([3]; conc. 1.00E-04 M) was 510 and the “MW (SPA signal, bound 3H-rosiglitazone)” value ([3]; conc. 3.00E-07 M) was 810. For the same molecule, the “displacement” value [3] was “no concentration-dependent displacement of the radioactive rosiglitazone”.
In the case of CCCCc1nc(Cl)c(CO)n1Cc1ccc(-c2ccccc2-c2nn[nH]n2)cc1 [Losartan], the “direct activation of the PPARgamma-LBD / recruiting of the LXXLL peptide” value [2] is reported as “does not result in any direct activation of the PPARgamma-LBD” and the “displacement” value [3] is reported as “no concentration-dependent displacement of the radioactive rosiglitazone”.
